Patent publication US20230398130A1, “METHODS AND COMPOSITIONS FOR DIFFERENTIATING STEM CELLS” (Massachusetts Institute of Technology, priority 2020, published 2023)

How the values were obtained:
[1] = test system: ISC-enriched organoids; assay: Primary screen, 384-well 2.5-D organoid differentiation (ENR+CD, 6 days, Target Selective Inhibitor Library, vs whole-plate median): ATP (CellTiter-Glo 3D, CTG); details: for SSMD.CTG: strictly standardized mean difference; for Dose.FC.CTG: FC vs plate median
[2] = test system: ISC-enriched organoids; assay: Primary screen, 384-well 2.5-D organoid differentiation (ENR+CD, 6 days): basal lysozyme secretion (LYZ.NS); assay type: cell-based, murine; details: for SSMD.LYZ.NS: strictly standardized mean difference; for Dose.FC.LYZ.NS: FC vs plate median
From the text: (§1) High-throughput screening.

[3] = test system: ISC-enriched organoids; assay: Primary screen, 384-well 2.5-D organoid differentiation (ENR+CD, 6 days): carbachol-induced lysozyme secretion (LYZ.S); assay type: cell-based, murine; details: primary screen; for Z.LYZ.S: standard z score; for SSMD.LYZ.S: strictly standardized mean difference; for Dose.FC.LYZ.S: FC vs plate median
From the text: as §1

[4] = Dose 0.08 uM, primary screen, standard z score
[5] = Dose 0.40 uM, primary screen, standard z score
[6] = Dose 2.00 uM, primary screen, standard z score
[7] = Dose 10.00 uM, primary screen, standard z score
[8] = primary screen, 1st of the 4 dose lines of the treatment (dose not given)
[9] = primary screen, 2nd of the 4 dose lines of the treatment (dose not given)
[10] = primary screen, 3rd of the 4 dose lines of the treatment (dose not given)
[11] = primary screen, 4th of the 4 dose lines of the treatment (dose not given)
[12] = 1st of the 4 dose lines of the treatment (dose not given)
[13] = 2nd of the 4 dose lines of the treatment (dose not given)
[14] = 3rd of the 4 dose lines of the treatment (dose not given)
[15] = 4th of the 4 dose lines of the treatment (dose not given)
[16] = Dose 0.08 uM, standard z score of FC
[17] = Dose 0.40 uM, standard z score of FC
[18] = Dose 2.00 uM, standard z score of FC
[19] = Dose 10.00 uM, standard z score of FC

Structure (SMILES)	Z.CTG [1, 4]	Z.CTG [1, 5]	Z.CTG [1, 6]	Z.CTG [1, 7]	SSMD.CTG [1, 8]	SSMD.CTG [1, 9]	SSMD.CTG [1, 10]	SSMD.CTG [1, 11]	SSMD.LYZ.NS [2, 8]	SSMD.LYZ.NS [2, 9]	SSMD.LYZ.NS [2, 10]	SSMD.LYZ.NS [2, 11]	Z.LYZ.S [3, 12]	Z.LYZ.S [3, 13]	Z.LYZ.S [3, 14]	Z.LYZ.S [3, 15]	SSMD.LYZ.S [3, 12]	SSMD.LYZ.S [3, 13]	SSMD.LYZ.S [3, 14]	SSMD.LYZ.S [3, 15]	also measured
CC#CCn1c(N2CCC[C@@H](N)C2)nc2c1c(=O)n(Cc1nc(C)c3ccccc3n1)c(=O)n2C [Linagliptin]	0.389	0.499	0.054	−0.027	0.299	0.612	0.047	−0.025	1.046	0.306	0.118	0.671	0.905	0.305	−0.204	0.322	0.797	0.215	−0.126	0.374	
Nc1nc(OCc2cc(Br)cs2)c2[nH]cnc2n1 [Lomeguatrib]	−1.017	−0.739	0.178	−0.192	−0.489	−0.422	0.193	−0.190	−0.474	−0.137	−0.189	−1.038	−0.528	−0.139	−0.356	−0.893	−0.435	−0.121	−0.346	−0.820	
CCOC(=O)N1CCC(=C2c3ccc(Cl)cc3CCc3cccnc32)CC1 [Loratadine]	−0.697	0.347	−0.488	−0.287	−0.683	0.535	−0.609	−0.360	0.098	−0.004	−0.783	−0.977	−0.490	0.069	−0.959	−0.956	−0.535	0.082	−0.811	−1.029	
CCCCc1nc(Cl)c(CO)n1Cc1ccc(-c2ccccc2-c2nnn[n-]2)cc1.[K+] [Losartan Potassium (DuP 753)]	−0.362	−0.418	−0.193	−0.328	−0.338	−0.304	−0.274	−0.390	0.273	0.263	−0.341	0.423	−0.112	0.173	−0.519	−0.164	−0.104	0.194	−0.616	−0.185	Dose.FC.CTG ([1]; Dose 0.08 uM, primary screen): −0.152 log 2 fold change; Dose.FC.CTG ([1]; Dose 0.40 uM, primary screen): −0.175 log 2 fold change; Dose.FC.CTG ([1]; Dose 2.00 uM, primary screen): −0.081 log 2 fold change; Dose.FC.CTG ([1]; Dose 10.00 uM, primary screen): −0.137 log 2 fold change; Dose.FC.LYZ.NS ([2]; Dose 0.08 uM, primary screen): 0.052 log 2 fold change; Z.LYZ.NS [2, 4]: 0.449; Dose.FC.LYZ.NS ([2]; Dose 0.40 uM, primary screen): 0.038 log 2 fold change; Z.LYZ.NS [2, 5]: 0.329; Dose.FC.LYZ.NS ([2]; Dose 2.00 uM, primary screen): −0.042 log 2 fold change; Z.LYZ.NS [2, 6]: −0.362; Dose.FC.LYZ.NS ([2]; Dose 10.00 uM, primary screen): 0.062 log 2 fold change; Z.LYZ.NS [2, 7]: 0.540; Dose.FC.LYZ.S ([3]; Dose 0.08 uM): −0.017 log 2 fold change; Dose.FC.LYZ.S ([3]; Dose 0.40 uM): 0.027 log 2 fold change; Dose.FC.LYZ.S ([3]; Dose 2.00 uM): −0.080 log 2 fold change; Dose.FC.LYZ.S ([3]; Dose 10.00 uM): −0.025 log 2 fold change
CC[C@H](C)C(=O)O[C@H]1C[C@@H](C)C=C2C=C[C@H](C)[C@H](CC[C@@H]3C[C@@H](O)CC(=O)O3)[C@H]21 [Lovastatin]	−0.769	−1.174	−2.803	−3.322	−0.609	−1.511	−2.978	−1.911	0.014	−0.516	−1.430	−1.590	−0.147	−0.320	−2.572	−2.645	−0.128	−0.236	−1.424	−1.288	
CC(C)CCNC(=O)[C@H](CC(C)C)NC(=O)[C@H]1O[C@@H]1C(=O)O [Loxistatin Acid (E-64C)]	0.206	0.373	0.191	0.224	0.218	0.402	0.176	0.270	0.757	0.330	0.411	0.027	0.808	0.677	0.238	0.138	0.833	0.449	0.159	0.141	Dose.FC.CTG ([1]; Dose 0.08 uM, primary screen): 0.086 log 2 fold change; Dose.FC.CTG ([1]; Dose 0.40 uM, primary screen): 0.156 log 2 fold change; Dose.FC.CTG ([1]; Dose 2.00 uM, primary screen): 0.080 log 2 fold change; Dose.FC.CTG ([1]; Dose 10.00 uM, primary screen): 0.094 log 2 fold change; Dose.FC.LYZ.NS ([2]; Dose 0.08 uM, primary screen): 0.147 log 2 fold change; Z.LYZ.NS [2, 4]: 1.283; Dose.FC.LYZ.NS ([2]; Dose 0.40 uM, primary screen): 0.061 log 2 fold change; Z.LYZ.NS [2, 5]: 0.534; Dose.FC.LYZ.NS ([2]; Dose 2.00 uM, primary screen): 0.055 log 2 fold change; Z.LYZ.NS [2, 6]: 0.482; Dose.FC.LYZ.NS ([2]; Dose 10.00 uM, primary screen): 0.004 log 2 fold change; Z.LYZ.NS [2, 7]: 0.031; Dose.FC.LYZ.S ([3]; Dose 0.08 uM): 0.125 log 2 fold change; Dose.FC.LYZ.S ([3]; Dose 0.40 uM): 0.105 log 2 fold change; Dose.FC.LYZ.S ([3]; Dose 2.00 uM): 0.037 log 2 fold change; Dose.FC.LYZ.S ([3]; Dose 10.00 uM): 0.021 log 2 fold change
C=CCn1c(=O)c2cnc(Nc3ccc(N4CCN(C)CC4)cc3)nc2n1-c1cccc(C(C)(C)O)n1 [MK-1775]					0.536	−1.242	−1.697	−1.818	0.317	−1.150	−1.545	−0.993	0.424	−1.404	−1.345	−1.643	0.440	−1.378	−1.357	−1.331	Z.CTG [1, 16]: 0.393; Z.CTG [1, 17]: −1.074; Z.CTG [1, 18]: −1.919; Z.CTG [1, 19]: −2.451
Cl.Cl.NC1(c2ccc(-c3nc4ccn5c(=O)[nH]nc5c4cc3-c3ccccc3)cc2)CCC1 [MK-2206 2HCl]					0.242	−0.074	−0.453	−1.730	0.230	−0.481	−1.586	−1.642	0.460	0.536	−1.546	−2.370	0.403	0.232	−1.686	−1.628	Dose.FC.CTG ([1]; Dose 0.08 uM, primary screen): 0.071 log 2 fold change; Z.CTG [1, 16]: 0.169; Dose.FC.CTG ([1]; Dose 0.40 uM, primary screen): −0.023 log 2 fold change; Z.CTG [1, 17]: −0.055; Dose.FC.CTG ([1]; Dose 2.00 uM, primary screen): −0.178 log 2 fold change; Z.CTG [1, 18]: −0.425; Dose.FC.CTG ([1]; Dose 10.00 uM, primary screen): −0.540 log 2 fold change; Z.CTG [1, 19]: −1.290; Dose.FC.LYZ.NS ([2]; Dose 0.08 uM, primary screen): 0.024 log 2 fold change; Z.LYZ.NS [2, 16]: 0.205; Dose.FC.LYZ.NS ([2]; Dose 0.40 uM, primary screen): −0.063 log 2 fold change; Z.LYZ.NS [2, 17]: −0.550; Dose.FC.LYZ.NS ([2]; Dose 2.00 uM, primary screen): −0.182 log 2 fold change; Z.LYZ.NS [2, 18]: −1.587; Dose.FC.LYZ.NS ([2]; Dose 10.00 uM, primary screen): −0.236 log 2 fold change; Z.LYZ.NS [2, 19]: −2.058; Dose.FC.LYZ.S ([3]; Dose 0.08 uM): 0.071 log 2 fold change; Dose.FC.LYZ.S ([3]; Dose 0.40 uM): 0.083 log 2 fold change; Dose.FC.LYZ.S ([3]; Dose 2.00 uM): −0.239 log 2 fold change; Dose.FC.LYZ.S ([3]; Dose 10.00 uM): −0.367 log 2 fold change
